From patent US7659284B2, “Thiazolopyridine kinase inhibitors” (Janssen Pharmaceutica NV, priority 2004, dated 2010)
“And” between values parts separate entries of the source, which are not always exact repeats. Equal entries are not always repeated.

Legend:
Type in all cases: biochemical
c-Src kinase (human) = molecular target: T1, c-Src kinase (human) (Homo sapiens, UniProt P12931); assay: c-Src Kinase Assay; details: for IC50: human c-Src, 5 μM ATP; for inhibition at 1 µM: test concentration (1) 1 μM, read-out: c-SRC percent inhibition
T1 construct: purchased Upstate Biotechnology, Lake Placid, N.Y
T1 sequence (P12931 whole entry): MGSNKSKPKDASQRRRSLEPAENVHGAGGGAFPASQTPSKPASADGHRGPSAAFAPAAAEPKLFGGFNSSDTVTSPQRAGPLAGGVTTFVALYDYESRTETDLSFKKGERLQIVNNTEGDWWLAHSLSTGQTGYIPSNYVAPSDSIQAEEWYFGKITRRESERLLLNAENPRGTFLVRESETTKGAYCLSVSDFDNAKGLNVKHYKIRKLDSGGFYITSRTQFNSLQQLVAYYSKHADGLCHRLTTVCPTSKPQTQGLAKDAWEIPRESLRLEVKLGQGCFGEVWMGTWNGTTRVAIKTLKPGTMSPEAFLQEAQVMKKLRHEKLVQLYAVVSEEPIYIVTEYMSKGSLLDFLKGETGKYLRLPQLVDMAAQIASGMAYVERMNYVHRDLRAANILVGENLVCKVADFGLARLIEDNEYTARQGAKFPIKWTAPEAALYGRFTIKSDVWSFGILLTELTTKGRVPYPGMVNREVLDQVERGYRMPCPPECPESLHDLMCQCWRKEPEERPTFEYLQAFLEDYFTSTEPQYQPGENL
Method: […] a 10× kinase buffer (80 mM MOPS at pH 7.0, 2 mM EDTA and 100 mM Magnesium Chloride), ATP (5 μM final from a 10 mM stock), a Cdc2 peptide KVEKIGEGTYGVVYK (100 μM final from a 2.5 mM stock), γ-^33P ATP (10 μCi/μL stock) and water (20 μL/well) was added to each well of a Streptavidin Flashplate.
Test compound in 100% DMSO (0.5 μL) was added to the appropriate wells. Diluted c-Src kinase (human) (Upstate Biotechnology, Lake Placid, N.Y.) (diluted in a buffer consisting of 20 mM MOPS at pH 7.0, 1 mM EDTA, β-mercaptoethanol (0.1%), Brij-35 (0.01%), glycerol (5%), and 1 mg/mL bovine serum albumin) (2.5 μL) was added to the wells to initiate the reactions. The reaction plates were incubated at 30° C. for 40 min. The reaction was terminated by the addition of a 3% phosphoric acid solution (5 μL). The reaction product (10 μL) was spotted onto a P30 filtermat and washed for 5 minutes in phosphoric acid (75 mM). The wash sequence was repeated two more times, followed with one final wash in methanol. The plates were then dried, sealed and read on the TopCount scintillation counter after adding 30 μL scintillation fluid.
The percent inhibitions and IC50 values were derived according to the procedure described in Example 52. For those compounds without an IC50, the percent inhibition results are shown at a test concentration of ^(1)1 μM or ^(2)1.6 μM.

Lyn kinase (human) = molecular target: T2, Lyn kinase (human) (Homo sapiens, UniProt P07948); assay: Lyn Kinase Assay (h); details: for IC50: (h) human Lyn, 5 μM ATP; for inhibition at 1 µM: test concentration (1) 1 μM
T2 construct: purchased Upstate Biotechnology, Lake Placid, N.Y
T2 sequence (P07948 whole entry): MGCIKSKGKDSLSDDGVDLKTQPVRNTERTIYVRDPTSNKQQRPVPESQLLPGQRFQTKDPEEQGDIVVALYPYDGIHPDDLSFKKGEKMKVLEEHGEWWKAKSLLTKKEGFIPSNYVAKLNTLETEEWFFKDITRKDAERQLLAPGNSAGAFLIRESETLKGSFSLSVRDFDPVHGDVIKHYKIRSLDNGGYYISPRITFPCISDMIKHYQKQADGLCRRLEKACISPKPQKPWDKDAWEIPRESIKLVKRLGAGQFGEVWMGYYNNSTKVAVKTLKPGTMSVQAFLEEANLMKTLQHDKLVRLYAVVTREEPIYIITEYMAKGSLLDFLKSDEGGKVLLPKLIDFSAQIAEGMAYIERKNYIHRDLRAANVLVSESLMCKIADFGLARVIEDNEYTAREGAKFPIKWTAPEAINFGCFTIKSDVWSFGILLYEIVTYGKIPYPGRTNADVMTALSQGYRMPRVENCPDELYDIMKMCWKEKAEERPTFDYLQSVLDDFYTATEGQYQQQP
Method: A mixture of a 10× kinase buffer (500 mM MOPS at pH 7.5, 1 mM EGTA, 1 mM Sodium Vanadate, 1% β-mercaptoethanol and 100 mM Magnesium Acetate), ATP (5 μM final from a 10 mM stock), polyGluTyr (0.1 mg/mL final from a 1 mg/mL stock), γ-^33P ATP (10 μCi/μL stock) and water (20 μL/well) was added to each well of a Streptavidin Flashplate.
Test compound in 100% DMSO (0.5 μL) was added to the appropriate wells. Diluted Lyn kinase (human) (Upstate Biotechnology, Lake Placid, N.Y.) (diluted in a buffer consisting of 50 mM Tris at pH 7.5, 0.1 mM EGTA, Sodium Vanadate (0.1 mM), β-mercaptoethanol (0.1%) and 1 mg/mL bovine serum albumin) (2.5 μL) was added to the wells to initiate the reactions.
The reaction plates were incubated at 30° C. for 40 min. The reaction was terminated by the addition of a 3% phosphoric acid solution (5 μL). The reaction product (10 μL) was spotted onto a P30 filtermat and washed for 5 minutes in phosphoric acid (75 mM). The wash sequence was repeated two more times, followed with one final wash in methanol. The plates were then dried, sealed and read on the TopCount scintillation counter after adding 30 μL scintillation fluid.
The percent inhibitions and IC50 values were derived according to the procedure described in Example 52. For those compounds without an IC50, the percent inhibition results are shown at a test concentration of ^(1) 1 μM or ^(2) 1.6 μM.

EGFR = molecular target: T3, EGFR (Homo sapiens, UniProt P00533); assay: EGFR Kinase Assay (GST-EGFR, 33P-ATP, Streptavidin Flashplate); details: for IC50: GST-EGFR intracellular portion, 5 μM ATP
T3 construct: started at nucleotide 2189 (corresponding to amino acid 667) and ended at the termination codon; made in house; host or cells: Sf9 insect cells (baculovirus)
T3 sequence (P00533 667-1210 limits assumed): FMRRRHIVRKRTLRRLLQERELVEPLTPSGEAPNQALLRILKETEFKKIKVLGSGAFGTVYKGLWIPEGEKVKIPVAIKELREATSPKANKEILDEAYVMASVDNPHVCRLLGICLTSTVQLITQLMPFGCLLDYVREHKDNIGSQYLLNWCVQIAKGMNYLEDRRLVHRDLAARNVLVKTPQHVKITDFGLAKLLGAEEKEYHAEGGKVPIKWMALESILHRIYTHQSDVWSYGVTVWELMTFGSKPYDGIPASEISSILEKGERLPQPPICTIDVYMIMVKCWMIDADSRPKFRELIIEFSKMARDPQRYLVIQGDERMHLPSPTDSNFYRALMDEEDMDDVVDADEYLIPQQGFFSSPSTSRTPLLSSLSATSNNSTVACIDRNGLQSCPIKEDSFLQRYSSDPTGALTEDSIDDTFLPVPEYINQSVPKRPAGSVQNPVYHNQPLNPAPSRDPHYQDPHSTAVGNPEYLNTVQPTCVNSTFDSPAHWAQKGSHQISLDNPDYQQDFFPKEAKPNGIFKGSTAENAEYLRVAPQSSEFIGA
Source text: The EGFR kinase used was a fusion of Glutathione-S-Transferase (GST) and a PCR amplified intracellular portion of EGFR (NM_005228). The intracellular portion of EGFR started at nucleotide 2189 (corresponding to amino acid 667) and ended at the termination codon. The portion was PCR amplified with primers that added the lambda attB sequences to each end, recombined into an entry vector, then into a GST destination vector (as described in Gateway Technologies Manual by Invitrogen Corporation, Carlsbad, Calif.).
The destination vector was recombined in the DH10BAC strain of bacteria to produce a bacmid. The bacmid was transfected into Sf 9 cells and the supernatant containing the baculovirus was collected. The GSTEGFR protein was purified using large cultures of Sf 9 cells infected with stock virus. After an appropriate period of time, the cells were collected and lysed. The GSTEGFR was then purified from the lysate on Glutathione-Sepharose columns (as described by Amersham Biosciences, Buckinghamshire, United Kingdom).
The EGFR substrate was prepared by biotinylating polyGluTyr (128 mg) (Sigma, St. Louis, Mo.) in a 1×PBS buffer incubated together with a 12-fold molar excess of Sulfo-NHS-LC-Biotin on ice for at least 2 hrs. The free biotin was separated from the biotinylated polyGluTyr on a gel filtration column.
A mixture of a 10× kinase buffer (500 mM Tris at pH 8.0, 100 mM Magnesium Chloride and 1 mM Sodium Vanadate), DTT (1 mM final from 500 mM stock), ATP (5 μM final from 10 mM stock), biotinylated polyGluTyr (10 μg/μL stock), γ-^33P ATP (10 μCi/μL stock) and water was added to each well (90 μL/well) of a Streptavidin Flashplate (Perkin Elmer, Wellesley, Mass.).
Test compound in 100% DMSO (2 μL) was added to the appropriate wells. Diluted GSTEGFR (1:300 dilution in 50 mM Tris at pH 8.0 and 0.1% bovine serum albumin) (10 μL) was added to the wells to initiate the reactions.
The plates were incubated at 30° C. for 1 hr with shaking. The reacted contents were removed and the plates were sequentially washed three times with a 1×PBS stop buffer (300 μL without Magnesium and Calcium) and 100 mM EDTA. After the final wash, the same stop buffer (200 μL) was added to the wells. The plates were then sealed and read on the TopCount scintillation counter.
Test compounds were assayed in triplicate at 16 concentrations at half-log dilutions starting at 200 uM. A maximum and minimum signal for the assay was determined on each plate. The percent inhibition of a test compound was calculated accord to the formula
For a series of test concentrations, the IC50 was derived by graphing percent inhibition against the log of the concentrations tested for a given compound. For those compounds without an IC50, the percent inhibition results are shown at a test concentration of 2 μM.

HER-2 = molecular target: T4, HER-2 (Homo sapiens, UniProt P04626); assay: HER-2 Kinase Assay; details: GST-HER2 kinase, 1 μM ATP
T4 construct: the nucleotides encoding amino acids 679 to 1255 of HER-2; HIS6 with thrombin site (N); purchased Proqinase (Freiburg, Germany)
T4 sequence (P04626 679-1255): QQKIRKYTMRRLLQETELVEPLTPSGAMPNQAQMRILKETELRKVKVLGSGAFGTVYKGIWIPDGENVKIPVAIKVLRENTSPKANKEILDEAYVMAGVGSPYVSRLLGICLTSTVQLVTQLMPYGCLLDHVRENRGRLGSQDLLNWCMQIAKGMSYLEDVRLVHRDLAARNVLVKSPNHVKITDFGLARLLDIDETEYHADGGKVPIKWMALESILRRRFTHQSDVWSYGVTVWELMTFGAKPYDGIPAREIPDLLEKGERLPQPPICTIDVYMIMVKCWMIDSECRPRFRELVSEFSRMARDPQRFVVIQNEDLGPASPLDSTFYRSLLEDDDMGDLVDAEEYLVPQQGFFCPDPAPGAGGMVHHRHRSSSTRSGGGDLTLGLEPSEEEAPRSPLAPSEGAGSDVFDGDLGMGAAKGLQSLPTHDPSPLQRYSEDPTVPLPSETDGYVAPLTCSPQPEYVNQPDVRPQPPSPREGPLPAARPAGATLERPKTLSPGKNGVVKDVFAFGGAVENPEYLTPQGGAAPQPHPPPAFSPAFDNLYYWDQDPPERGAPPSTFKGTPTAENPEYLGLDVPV
Method: The HER-2 kinase used was purified at Proqinase (Freiburg, Germany) from a construct that consisted of a fusion of GST (Glutathione-S-Transferase), HIS6-Thrombin and the nucleotides encoding amino acids 679 to 1255 of HER-2.
A mixture of a 10× kinase reaction buffer (600 mM Hepes at pH 7.5, 30 mM Magnesium Chloride, 0.03 mM Sodium Vanadate and 500 μg/mL PEG 20,000), DTT (1.2 mM final from a 10 mM stock), ATP (1 μM from a 10 mM stock), biotinylated polyGluTyr (1.5 ng/μL final from stock of 1 μg/μL prepared by Upstate Biotechnologies, Lake Placid, N.Y.), Manganese Chloride (3 mM final from a 1 M stock), γy-^33P-ATP (10 μCi/μL stock) and water (70 μL/well) was added to each well of a Streptavidin Flashplate (Cat. # SMP103, NEN, Boston, Mass.).
Test compound stock (1 μL) was added to the appropriate wells. Diluted GSTHER2 kinase (6.7 ng/μL diluted into 50 mM Tris-HCl at pH 8.0 and 0.1% bovine serum albumin) (30 μL) was added (total volume of 200 ng/well) to initiate the reactions.
The reaction plates were incubated at 30° C. for 1 hr. The reaction was terminated by aspirating the reaction mixture from the plate wells and washing the wells three times with a 1×PBS stop buffer (300 μL) and 100 mM EDTA. After the final wash, the same stop buffer (200 μL) was again added to the wells. The plates were then sealed and read on the TopCount scintillation counter.
The IC50 was derived according to the procedure described in Example 52. For those compounds without an IC50, the percent inhibition results are shown at a test concentration of 1 μM.

LYN (m) = LYN (m) (Mus musculus, UniProt P25911); assay: Lyn Kinase Assay (m); details: for inhibition at 1 µM: test concentration (1) 1 μM, read-out: LYN percent inhibition (m)
Chain of LYN (m) (P25911 whole entry): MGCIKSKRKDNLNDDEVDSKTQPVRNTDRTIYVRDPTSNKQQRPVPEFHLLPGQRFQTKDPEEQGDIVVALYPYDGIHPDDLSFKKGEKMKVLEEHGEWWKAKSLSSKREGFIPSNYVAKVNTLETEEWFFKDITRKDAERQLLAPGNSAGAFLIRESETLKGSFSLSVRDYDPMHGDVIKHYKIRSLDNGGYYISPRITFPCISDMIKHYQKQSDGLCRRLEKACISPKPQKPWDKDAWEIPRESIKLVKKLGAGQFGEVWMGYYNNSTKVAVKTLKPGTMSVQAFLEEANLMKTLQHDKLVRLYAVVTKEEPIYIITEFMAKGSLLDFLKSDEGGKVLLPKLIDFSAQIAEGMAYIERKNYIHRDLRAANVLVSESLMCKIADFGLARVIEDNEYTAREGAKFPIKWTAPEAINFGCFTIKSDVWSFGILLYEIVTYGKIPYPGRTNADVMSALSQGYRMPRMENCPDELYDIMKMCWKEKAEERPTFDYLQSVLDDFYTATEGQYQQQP

[1] = (h), read-out: LYN percent inhibition (h)

Row | Structure (SMILES) | c-SRC percent inhibition (c-Src kinase (human); test concentration not marked (1 μM or 1.6 μM)) | inhibition at 1.6 µM (Lyn kinase (human); (h), test concentration (2) 1.6 μM, read-out: LYN percent inhibition (h)) | inhibition at 2 µM (EGFR; test concentration of 2 μM, read-out: EGFR percent inhibition) | IC50 (HER-2) | IC50 (c-Src kinase (human)) | IC50 (Lyn kinase (human)) | IC50 (EGFR) | IC50 (LYN (m)) | inhibition at 1 µM (c-Src kinase (human)) | inhibition at 1 µM (Lyn kinase (human); [1]) | inhibition at 1 µM (LYN (m))
1 | CN1CCN(Cc2ccc(Nc3nc4ncc(C#N)c(Nc5ccc(Oc6ccccc6)cc5)c4s3)cc2)CC1 [Cpd 51, 2-[4-(4-methyl-piperazin-1-ylmethyl)-phenylamino]-7-(4-phenoxy-phenylamino)-thiazolo[4,5-b]pyridine-6-carbonitrile] | 0% | 37% | 0% | > 100000 nM |  |  |  |  |  |  | 
2 | CN(C)Cc1ccc(Nc2nc3ncc(C#N)c(Nc4cccc5c4OC(F)(F)O5)c3s2)cc1 [Cpd 25, 7-(2,2-difluoro-benzo[1,3]dioxol-4-ylamino)-2-(4-dimethylaminomethyl-phenylamino)-thiazolo[4,5-b]pyridine-6-carbonitrile] |  |  |  | 92700 nM | 1410 nM | 224 nM | 43.3 nM | 790 nM |  |  | 
3 | C#Cc1cccc(Nc2c(C#N)cnc3nc(Nc4ccc(S(=O)(=O)NCCCN(C)C)cc4)sc23)c1 [Cpd 23, 4-[6-cyano-7-(3-ethynyl-phenylamino)-thiazolo[4,5-b]pyridin-2-ylamino]-N-(3-dimethylamino-propyl)-benzenesulfonamide] |  |  |  |  |  |  | 20.4 nM |  | -2% | 8% | 42%

Next, values leading:

Row | c-SRC percent inhibition (c-Src kinase (human); test concentration not marked (1 μM or 1.6 μM)) | inhibition at 1.6 µM (Lyn kinase (human); (h), test concentration (2) 1.6 μM, read-out: LYN percent inhibition (h)) | inhibition at 2 µM (EGFR; test concentration of 2 μM, read-out: EGFR percent inhibition) | IC50 (HER-2) | IC50 (c-Src kinase (human)) | IC50 (Lyn kinase (human)) | IC50 (EGFR) | IC50 (LYN (m)) | inhibition at 1 µM (c-Src kinase (human)) | inhibition at 1 µM (Lyn kinase (human); [1]) | inhibition at 1 µM (LYN (m)) | Structure (SMILES)
4 |  |  |  |  | 11 nM | 11 nM | 378 nM and 941 nM | 9 nM |  |  |  | N#Cc1cnc2nc(Nc3ccc(CN4CCOCC4)cc3)sc2c1Nc1c(Cl)ccc2c1OCO2 [Cpd 20, 7-(5-chloro-benzo[1,3]dioxol-4-ylamino)-2-(4-morpholin-4-ylmethyl-phenylamino)-thiazolo[4,5-b]pyridine-6-carbonitrile]
5 |  |  |  | 2060 nM |  |  | 33.3 nM |  | 15% | -5% | 10% | N#Cc1cnc2nc(Nc3ccc(CN4CCCC4)cc3)sc2c1Nc1ccc(OCc2cccc(F)c2)c(Cl)c1 [Cpd 24, 7-[3-chloro-4-(3-fluoro-benzyloxy)-phenylamino]-2-(4-pyrrolidin-1-ylmethyl-phenylamino)-thiazolo[4,5-b]pyridine-6-carbonitrile]
